Drawing on patent US20120225834A1, “OCULAR IONTOPHORESIS OF CHARGED MICELLES CONTAINING BIOACTIVE AGENTS” (EYEGATE PHARMACEUTICALS, INC., priority 2009, published 2012), this text covers Aqueous solubility for two molecules.

Like-named read-outs stand apart in the source and are kept apart here.

This data set in a line: Solubilization of sparingly soluble compounds using quaternary ammonium cationic surfactants (dissolved concentration by HPLC). The data set is classed as physicochemical. The procedure:
Aqueous solubility of dexamethsone, a corticosteroid, and natamycin, an antifungal agent, was increased by using quaternary ammonium cationic surfactants cetyltrimethylammonium bromide (CTAB), ditetradecyldimethylammonium bromide (TMAB), and dioctadecyldimethylammonium chloride (OMAC). Stock solutions of surfactants were prepared by adding water to the surfactant and mixing under low shear at room temperature. The stock solution of CTAB and TMAB was prepared at 10 mg/mL and 20 mg/mL in WFI (water for injection) whereas the stock solution of OMAC was only prepared at 10 mg/mL due to gel formation at 20 mg/mL. Surfactant solutions with different concentrations were then prepared by diluting the corresponding stock solution with WFI.
Dexamethasone (or natamycin) was added to each surfactant solution in such quantity to precipitate. The mixture was sonicated for one hour in a sonication water tank and then stirred overnight.
Dissolved dexamethasone (or natamycin) concentration was analyzed on HPLC following two different procedures: (1) An aliquot of the mixture was centrifuged at 10 k RPM (9.3 k×g relative gravitational force) for 30 min. Clear supernatant was then analyzed on HPLC; (2) An aliquot of the mixture was filtered through a syringe filter (Acrodisc®, Supor membrane, 0.2 micrometers), and then analyzed on HPLC. […]

Turning to `C[C@@H]1C/C=C/C=C/C=C/C=C/[C@H](O[C@@H]2O[C@H](C)[C@@H](O)[C@H](N)[C@@H]2O)C[C@@H]2O[C@](O)(C[C@@H](O)C[C@H]3O[C@@H]3/C=C/C(=O)O1)C[C@H](O)[C@H]2C(=O)O` [natamycin], the Aqueous solubility result was “increased”.
Regarding `C[C@@H]1C[C@H]2[C@@H]3CCC4=CC(=O)C=C[C@]4(C)[C@@]3(F)[C@@H](O)C[C@]2(C)[C@@]1(O)C(=O)CO` [dexamethsone, dexamethasone], the Aqueous solubility result (in aqueous solutions of quaternary ammonium cationic surfactants CTAB, TMAB and OMAC in WFI, sonicated one hour, stirred overnight, HPLC after centrifugation or 0.2 micrometer filtration) is reported as “increased”.
